“And” between values parts separate entries of the source, which are not always exact repeats. Equal values may be shown once. One block for each compound: values may come before it.
Assays:
[1] = target: T1, NANOLUC-p38 alpha fusion protein (Homo sapiens, UniProt Q16539); assay: Pull-down and release of NANOLUC-p38 alpha fusion from HEK293 cell lysates; format: binding
T1 construct: NANOLUC luciferase (reporter fusion partner); expressed in transfected cells; host or cells: HEK293
Method: In this example, BIRB-chloroalkane conjugate (PBI-4834) and BIRB chloroalkane conjugate containing a cleavable linker (PBI-5131) were utilized to pull-down a NANOLUC-p38 alpha fusion protein from HEK293 cell lysates. Lysate of cells expressing NANOLUC-p38 fusion were incubated with 1 μM PBI-4834 or PBI-5131 (final concentration) while control lysates were not treated with the conjugated drugs. Following equilibration binding for 2 h, the lysates were transferred to wells of a 96-well plate containing 0.5 μl settled paramagnetic HALOTAG protein beads and incubated with shaking for 45 min. Following binding the unbound fraction was removed, the HALOTAG protein paramagnetic beads were washed 3×, and the captured NANLUC-p38 alpha fusion specifically released from the beads by one of two methods: • 1. 150 μM unconjugated BIRB796 was used to compete for binding with the conjugated BIRB796 on the NANOLUC-p38 alpha fusion for 60 min. • 2. The NANOLUC-p38 alpha fusion was rapidly released through 10 min chemical cleavage of the chloroalkane linker with 10 mM of sodium hydrosulfite (PBI-5131 is a chloroalkane cleavable linker). The released NANOLUC-p38 alpha (+PBI4834/+PBI5131) and control (-drug) were detected with NANOGLO luciferase detection reagent.

[2] = target: T2, NANOLUC-p38 fusion protein (Homo sapiens, UniProt Q16539); assay: Pull-down of NANOLUC-p38 fusion from cell lysates with HALOTAG protein dimer on HALOLINK plates; format: binding; conditions: p38-Nluc expressing cells treated with drug, listed as BIRB-chloroalkane
T2 construct: NANOLUC luciferase (reporter fusion partner); expressed in transfected cells
T2 sequence (Q16539 whole entry, the tested form may be a part): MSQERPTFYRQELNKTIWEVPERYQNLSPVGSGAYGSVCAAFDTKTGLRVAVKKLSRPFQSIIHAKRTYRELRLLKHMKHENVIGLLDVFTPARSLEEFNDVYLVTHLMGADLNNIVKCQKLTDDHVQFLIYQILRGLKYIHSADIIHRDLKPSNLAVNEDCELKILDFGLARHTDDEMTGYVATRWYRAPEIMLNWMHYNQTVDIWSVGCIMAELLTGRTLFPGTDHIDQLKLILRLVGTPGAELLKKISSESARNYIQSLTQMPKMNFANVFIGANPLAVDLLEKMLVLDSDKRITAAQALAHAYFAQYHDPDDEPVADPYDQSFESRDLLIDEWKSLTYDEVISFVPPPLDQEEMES
Method: Different amounts of a HALOTAG protein dimer (dimer of SEQ ID NO: 1) were added to cell lysates expressing a NANOLUC-p38 fusion protein (e.g., reporter/cellular-target fusion) which have or have not been treated with BIRB-chloroalkane (e.g., bioactive-agent/capture-ligand conjugate) as shown in Table 1. After 15 minute incubation, the samples were placed into wells of white, 96-well polystyrene plates activated with HALOTAG ligand (HALOLINK plates; Promega Corp.) and further incubated for 45 minutes. The wells were then washed PBS+0.05% Tween-20 (PBST). Then, 50 ul PBS followed by 50 ul of NANOGLO luciferase detection reagent was added to the wells, and luminescence measured.
Table 2 indicates differences in luminescence in samples with and without HALOTAG dimer (e.g., dimer of SEQ ID NO: 1) that indicate specific pull-down of the NANOLUC-p38 fusion protein.

[3] = target: T1, NANOLUC-p38 alpha fusion protein; assay: Pull-down of NANOLUC-p38 alpha fusion from living HEK293 cells onto HALOTAG protein beads; format: cell-based
Method: In this example, a BIRB-chloroalkane conjugate (PBI-4834, see below) was utilized to pull down a NANOLUC-p38 alpha fusion protein from living cells.
HEK293 cells in wells of a 96-well plate were transfected using PEI with plasmid DNA encoding NANOLUC-p38 fusion. Twenty-four hours post-transfection, cells were incubated with a final concentration of 10 μM PBI-4834 while control cells were not treated with the conjugated drug. Following equilibration binding of 2 hours, the media was removed, cells were quickly washed with PBS and lysed in a detergent-based lysis buffer for 10 minutes. The cell lysates were then transferred to wells of a 96-well plate which contained 0.5 μl settled paramagnetic HALOTAG protein beads (Promega Corp.) and incubated with shaking for 15-45 minutes. Following binding, the unbound fraction was removed and the HALOTAG protein paramagnetic beads were washed. 150 uM unconjugated BIRB796 was then added and the captured NANOLUC-p38 alpha fusion was specifically released from the beads by competition with the unconjugated BIRB796 for 60 minutes. The released NANOLUC-p38 alpha fusion protein (+PBI-4834) and control (−PBI4834) was detected using NANOGLO luciferase reagent (Promega Corp.).

p38 alpha = target: T3, p38 alpha (Homo sapiens, UniProt Q16539); assay: Endogenous target pull-down from HEK293 cells (western blot, mass spec); format: cell-based; conditions: 10 uM conjugate, western blot and mass spec
T3 construct: isolate, e.g., pull-down, endogenous targets from cells; endogenous in cells; host or cells: HEK293
T3 sequence (Q16539 whole entry): as the sequence (Q16539 whole entry, the tested form may be a part) above
Method: HEK293 cells were plated in a 6 well plate (2.5×10^5 cells). 48 hours post plating, a final concentration of 10 uM of BIRB-chloroalkane (PBI-4834) was added to 2 wells while control cells were not treated with the drug conjugate. Following equilibration binding for 2 h, the media was removed, and the cells were quickly washed with PBS and lysed in detergent-based lysis buffer for 10 min. Cell lysates were then transferred to an EPPENDORF tube containing 12.5 ul of settled paramagnetic HALOTAG protein beads and incubated with shaking for 15 min. Following binding, the unbound fraction was removed, the HALOTAG protein paramagnetic beads washed 3×, and the captured targets specifically released from the beads by competition with 150 μM unconjugated BIRB796 for 60 min. The released targets were subjected to mass spec analysis as well as western blot analysis using an anti-p38 alpha antibody (Abcam).

DHFR = target: T4, DHFR (Homo sapiens, UniProt P00374); assay: as above; format: cell-based; conditions: 10 uM conjugate, western blot and mass spec
T4 construct: isolate, e.g., pull-down, endogenous targets from cells; endogenous in cells; host or cells: HEK293
T4 sequence (P00374 1-187): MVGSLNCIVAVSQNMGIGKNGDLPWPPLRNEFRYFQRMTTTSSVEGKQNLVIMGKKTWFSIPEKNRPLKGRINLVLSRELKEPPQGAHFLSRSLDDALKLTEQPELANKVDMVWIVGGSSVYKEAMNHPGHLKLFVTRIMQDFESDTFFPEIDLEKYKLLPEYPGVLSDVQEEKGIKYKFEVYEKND
Method: HEK293 cells were plated into wells of a 6-well plate (2.5×10^5 cells/well). 48 hours post plating, a final concentration of 10 uM of Methotrexate chloroalkane (PBI-5015) was added to 2 wells while control cells were not treated with the drug conjugate. Following equilibration binding for 2 h, the media was removed, and the cells quickly washed with PBS and lysed in detergent-based lysis buffer for 10 min. Cell lysates were then transferred to an Eppendorf® tube containing 12.5 ul of settled paramagnetic HALOTAG protein beads and incubated with shaking for 15 min. Following binding, the unbound fraction was removed, the HALOTAG paramagnetic beads washed 3×, and the captured targets specifically released from the beads by competition with 150 μM unconjugated methotrexate for 60 mins. The released targets were subjected to mass spec analysis as well as western blot analysis using an anti-DHFR antibody (Sigma). […] Furthermore, although the expression level of DHFR in the cells is very low (not detected in lysate by western blot analysis), it was still efficiently captured as indicated by the western blot analysis (FIG. 8A) and mass spec analysis (FIG. 8B).

NANOLUC-DHFR fusion = target: T5, NANOLUC-DHFR fusion (Homo sapiens, UniProt P00374); assay: Binding affinity to DHFR in live cells using BRET; format: cell-based; conditions: live HEK293 cells, in the presence of 1 μM PBI-4890
T5 construct: NANOLUC luciferase (reporter fusion partner); expressed in transfected cells; host or cells: HEK293
T5 sequence (P00374 1-187): T4 sequence (P00374 1-187)
Method: Binding affinity to DHFR in live cells was tested using BRET. HEK293 cells in wells of a 96-well plate were transfected using PEI with plasmid DNA encoding a NANOLUC-DHFR fusion. The DNA was diluted 1:50 with a promoterless carrier DNA plasmid (PSI) to a final concentration of 80 ng total DNA per well. Twenty-four hours post-transfection, cells were serum starved for additional 24 hours and then treated with serially diluted PBI-4848 or PBI-5015 in the presence of 1 μM PBI-4890 (TOM-methotrexate derivative). After two hours of equilibration binding, furimazine (a coelenterazine derivative; Promega Corp.) was added to a final concentration of 20 μM, and BRET measured on a Varioskan luminometer.

[4] = target: T6, NANOLUC:DHFR (Nluc:DHFR) fusion (Homo sapiens, UniProt P00374); assay: Pull-down of NANOLUC:DHFR from live HEK293 cells onto HALOTAG protein beads; format: cell-based; conditions: 10 μM conjugate, release with 150 μM methotrexate
T6 construct: NANOLUC luciferase (reporter fusion partner); expressed in transfected cells; host or cells: HEK293
T6 sequence (P00374 1-187): T4 sequence (P00374 1-187)
Method: The DNA was diluted 1:50 with a promoterless carrier DNA plasmid (PSI) to a final concentration of 80 ng total DNA per well. Twenty-four hours post-transfection, cells were serum starved for additional 24 h and then incubated with 10 μM PBI-4848 or PBI-5015 while control cells were not treated with the conjugated drug. Following equilibration binding of 2 h, the media was removed, and the cells quickly washed with PBS and lysed in detergent-based lysis buffer for 10 min. Cell lysates were then transferred to wells of a 96-well plate containing 0.5 μl settled paramagnetic HALOTAG protein beads and incubated with shaking for 45 min. Following binding, the unbound fraction was removed, the HALOTAG protein paramagnetic beads washed, 150 μM unconjugated methotrexate added, and the captured NANOLUC:DHFR specifically released from the beads by competition with the unconjugated methotrexate for 60 min. The released NANOLUC:DHFR (+PBI5015 or +PBI 4848) and control samples were detected by NANOGLO luciferase detection reagent.

T1 sequence (Q16539 whole entry, the tested form may be a part): as the sequence (Q16539 whole entry, the tested form may be a part) above

specific capture after rapid release using chemical cleavage ([1]; 10 min cleavage with 10 mM sodium hydrosulfite): significant increase in specific capture
Structure (SMILES): CC(C)(C)c1cc(NC(=O)Nc2ccccc2)n(-c2cccc(CNC(=O)CCCCCOc3ccc(/N=N/c4ccc(C(=O)NCCOCCOCCCCCCCl)cc4)c(O)c3)c2)n1 [PBI-5131]

Structure (SMILES): CC(C)(C)c1cc(NC(=O)Nc2ccccc2)n(-c2cccc(CNC(=O)CNC(=O)OCCOCCOCCOC(=O)NCCOCCOCCCCCCCl)c2)n1 [PBI-4834]
luminescence ([2]; 2 ug/well HALOTAG dimer): 236900 and 397958 and 431167
luminescence ([2]; 6 ug/well HALOTAG dimer): 401205 and 538956 and 596504
luminescence ([2]; 8 ug/well HALOTAG dimer): 395510 and 526903 and 610628
luminescence ([2]; No HALOTAG dimer): 278085 and 275690 and 443682
expressed fusion specifically captured to the beads ([3]; 10 μM conjugate, HEK293 cells, release with 150 uM BIRB796): 1%
signal over background of capture on HALOTAG protein beads ([3]; within 15 minutes of capture): high signal over background
pull-down of endogenous p38 alpha (p38 alpha): specifically isolated
pull-down efficiency of NANOLUC-p38 alpha ([1]; 1 μM conjugate, HEK293 cell lysate): significantly higher

pull-down of endogenous DHFR (DHFR): specifically isolated
affinity to DHFR (dose-response BRET curves) (NANOLUC-DHFR fusion): lower affinity
pull-down of Nluc:DHFR fusion [4]: efficiently pulled down
Structure (SMILES): CN(Cc1cnc2nc(N)nc(N)c2n1)c1ccc(C(=O)NC(CCC(=O)NCCCCCNC(=O)OCCOCCOCCOC(=O)NCCOCCOCCCCCCCl)C(=O)O)cc1 (stereo not shown) [PBI-5015]

affinity to DHFR (dose-response BRET curves) (NANOLUC-DHFR fusion): higher affinity
Structure (SMILES): CN(Cc1cnc2nc(N)nc(N)c2n1)c1ccc(C(=O)NC(CCC(=O)NCCOCCOCCCCCCCl)C(=O)O)cc1 (stereo not shown) [PBI-4848]

Reference: patent publication US10168323B2, “Compositions and methods for capture of cellular targets of bioactive agents” (Promega Corporation, priority 2013, dated 2019)
